In patent US5561228A, “Macrocyclic immunomodulators” (Abbott Laboratories, priority 1994, dated 1996) one finds IC50 data, which are given here for 4 molecules.

A word on the pIC50: it is −log10 of the IC50, conventionally taken in molar units. Low values mean a high IC50, high ones a low IC50.

The test system of this assay is human mixed lymphocyte reaction (MLR). The assay is described as follows: human mixed lymphocyte reaction (MLR) assay. Type of assay: cell-based. The conditions noted are these: immunosuppressant activity, Table 1. The protocol: The immunosuppressant activity of the compounds of the present invention was determined using the human mixed lymphocyte reaction (MLR) assay described by Kino, T. et al. in Transplantation Proceedings, XIX(5):36-39,Suppl. 6 (1987).

pIC50: −log10 of the molar value. Some results are limits rather than exact numbers.

`CC[C@@H]1/C=C(\C)C[C@H](C)C[C@H](OC)[C@H]2O[C@@](O)(C(=O)C(=O)N3CCCC[C@H]3C(=O)O[C@H](/C(C)=C/[C@@H](CC=NN(C)C)CCC#N)[C@H](C)[C@@H](O)CC1=O)[C@H](C)C[C@@H]2OC` [Example 417] showed a pIC50 of more than 6.00.

`CC[C@@H]1/C=C(\C)C[C@H](C)C[C@H](OC)[C@H]2O[C@@](O)(C(=O)C(=O)N3CCCC[C@H]3C(=O)O[C@H](/C(C)=C/[C@@H](CC=NO)CCC#N)[C@H](C)[C@@H](O)CC1=O)[C@H](C)C[C@@H]2OC` [Example 419] had a negative-log IC50 (pIC50) of more than 6.00. The value for `CC[C@@H]1/C=C(\C)C[C@H](C)C[C@H](OC)[C@H]2O[C@@](O)(C(=O)C(=O)N3CCCC[C@H]3C(=O)O[C@H](/C(C)=C/[C@@H](CC=NOCC(=O)O)CCC#N)[C@H](C)[C@@H](O)CC1=O)[C@H](C)C[C@@H]2OC` [Example 421] was more than 6.00; that for `CC[C@@H]1/C=C(\C)C[C@H](C)C[C@H](OC)[C@H]2O[C@@](O)(C(=O)C(=O)N3CCCC[C@H]3C(=O)O[C@H](/C(C)=C/[C@@H](CCO)CCC#N)[C@H](C)[C@@H](O)CC1=O)[C@H](C)C[C@@H]2OC` [Example 425] was more than 6.00.
